Assay [1] deals with T1, Low molecular weight phosphotyrosine protein phosphatase (Homo sapiens, UniProt P24666).
T1 sequence (P24666 whole entry): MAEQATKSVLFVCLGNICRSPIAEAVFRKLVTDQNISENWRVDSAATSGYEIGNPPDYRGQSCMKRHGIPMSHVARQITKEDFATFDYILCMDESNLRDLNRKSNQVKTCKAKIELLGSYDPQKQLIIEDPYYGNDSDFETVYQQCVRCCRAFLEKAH
Kind of assay: Inhibition of LMW-PTP.

In assay [2] the target is T2, Tyrosine-protein phosphatase non-receptor type 11 (Homo sapiens) (UniProt Q06124).
T2 sequence (whole entry): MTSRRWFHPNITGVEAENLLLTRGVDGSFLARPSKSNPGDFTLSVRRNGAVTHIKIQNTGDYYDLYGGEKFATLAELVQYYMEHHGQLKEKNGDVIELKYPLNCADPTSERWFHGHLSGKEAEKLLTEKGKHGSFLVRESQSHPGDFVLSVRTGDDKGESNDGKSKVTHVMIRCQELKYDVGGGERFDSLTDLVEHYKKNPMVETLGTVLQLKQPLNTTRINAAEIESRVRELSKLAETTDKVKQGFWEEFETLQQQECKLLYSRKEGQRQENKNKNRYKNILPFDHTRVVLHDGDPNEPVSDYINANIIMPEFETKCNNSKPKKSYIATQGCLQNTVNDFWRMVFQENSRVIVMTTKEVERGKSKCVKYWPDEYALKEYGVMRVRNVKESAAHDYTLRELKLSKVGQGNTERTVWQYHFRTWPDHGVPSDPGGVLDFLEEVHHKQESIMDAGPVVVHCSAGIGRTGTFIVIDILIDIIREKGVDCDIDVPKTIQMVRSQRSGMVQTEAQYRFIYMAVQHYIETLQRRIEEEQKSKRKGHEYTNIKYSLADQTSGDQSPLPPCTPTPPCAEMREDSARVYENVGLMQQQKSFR
Kind of assay: Inhibition of SHP2 catalytic domain assessed as inhibition of pNPP to p-nitrophenol conversion at 50 uM after 5 mins by spectrophotometry.

Assay [3] deals with T3, Tyrosine-protein phosphatase non-receptor type 1 (Homo sapiens, UniProt P18031).
T3 sequence (P18031 whole entry): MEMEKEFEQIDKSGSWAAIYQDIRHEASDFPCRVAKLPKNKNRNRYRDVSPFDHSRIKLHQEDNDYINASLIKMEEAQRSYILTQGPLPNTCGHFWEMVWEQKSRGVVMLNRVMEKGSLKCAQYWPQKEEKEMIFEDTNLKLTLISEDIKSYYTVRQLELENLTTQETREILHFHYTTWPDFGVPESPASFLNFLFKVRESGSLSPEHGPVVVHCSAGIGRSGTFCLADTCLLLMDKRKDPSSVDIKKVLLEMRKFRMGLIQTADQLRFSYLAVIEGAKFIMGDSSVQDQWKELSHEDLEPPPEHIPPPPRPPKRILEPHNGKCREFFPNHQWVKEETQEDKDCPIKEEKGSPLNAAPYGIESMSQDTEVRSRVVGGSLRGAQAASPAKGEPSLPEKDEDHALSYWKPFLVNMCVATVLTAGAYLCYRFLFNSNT
Description: Inhibition of PTP1B.

In assay [4] the target is Receptor-type tyrosine-protein phosphatase F (Homo sapiens, UniProt P10586). Description: Inhibition of LAR.
The target in assay [5] is Receptor-type tyrosine-protein phosphatase alpha (Homo sapiens) (UniProt P18433). Kind of assay: Inhibition of PTPalpha at 100 uM.
The target of assay [6] is T4, Tyrosine-protein phosphatase non-receptor type 2 (Homo sapiens, UniProt P17706).
T4 sequence (P17706 whole entry): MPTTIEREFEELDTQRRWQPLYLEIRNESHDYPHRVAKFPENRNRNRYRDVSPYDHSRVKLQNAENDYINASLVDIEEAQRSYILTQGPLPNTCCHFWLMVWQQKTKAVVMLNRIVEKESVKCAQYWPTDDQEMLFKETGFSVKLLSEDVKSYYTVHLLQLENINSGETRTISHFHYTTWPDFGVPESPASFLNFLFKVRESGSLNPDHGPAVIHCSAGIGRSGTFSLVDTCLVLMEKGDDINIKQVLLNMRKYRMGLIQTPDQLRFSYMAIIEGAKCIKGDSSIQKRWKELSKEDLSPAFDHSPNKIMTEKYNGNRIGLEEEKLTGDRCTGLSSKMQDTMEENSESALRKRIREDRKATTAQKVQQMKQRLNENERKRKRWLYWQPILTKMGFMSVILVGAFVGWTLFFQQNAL
Description: Inhibition of TC-PTP.

Assay [7] has as its target T5, Dual specificity protein phosphatase 22 (Homo sapiens, UniProt Q9NRW4).
T5 sequence (Q9NRW4 whole entry): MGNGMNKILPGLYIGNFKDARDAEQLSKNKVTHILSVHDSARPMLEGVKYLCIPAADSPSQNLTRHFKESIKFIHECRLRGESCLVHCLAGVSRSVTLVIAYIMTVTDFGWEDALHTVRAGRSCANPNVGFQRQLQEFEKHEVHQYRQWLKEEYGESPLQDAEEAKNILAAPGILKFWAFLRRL
Description: Inhibition of VHX.

Assay [8] concerns the target T6, Tyrosine-protein phosphatase non-receptor type 22 (Homo sapiens) (UniProt Q9Y2R2).
T6 sequence (whole entry): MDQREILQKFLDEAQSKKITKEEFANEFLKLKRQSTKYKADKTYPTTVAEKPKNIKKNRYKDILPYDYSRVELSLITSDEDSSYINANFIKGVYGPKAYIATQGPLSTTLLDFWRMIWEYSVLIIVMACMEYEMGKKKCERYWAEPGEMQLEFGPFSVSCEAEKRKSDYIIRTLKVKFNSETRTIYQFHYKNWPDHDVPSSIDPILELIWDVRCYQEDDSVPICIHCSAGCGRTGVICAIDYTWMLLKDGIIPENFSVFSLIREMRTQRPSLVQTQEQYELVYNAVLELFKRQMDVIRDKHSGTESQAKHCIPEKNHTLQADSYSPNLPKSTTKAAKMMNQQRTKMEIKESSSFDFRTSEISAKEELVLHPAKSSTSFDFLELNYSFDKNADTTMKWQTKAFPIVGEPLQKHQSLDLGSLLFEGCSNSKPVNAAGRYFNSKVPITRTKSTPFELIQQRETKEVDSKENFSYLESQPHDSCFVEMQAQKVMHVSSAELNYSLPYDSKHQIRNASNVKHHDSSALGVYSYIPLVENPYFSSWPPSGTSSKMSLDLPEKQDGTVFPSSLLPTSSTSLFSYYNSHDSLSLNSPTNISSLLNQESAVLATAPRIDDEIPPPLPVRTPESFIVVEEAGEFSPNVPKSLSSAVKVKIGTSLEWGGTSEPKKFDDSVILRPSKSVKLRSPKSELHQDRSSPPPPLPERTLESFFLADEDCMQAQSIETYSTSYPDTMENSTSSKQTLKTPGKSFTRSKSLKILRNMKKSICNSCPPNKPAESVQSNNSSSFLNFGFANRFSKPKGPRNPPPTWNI
Description: Inhibition of LYP at 100 uM.

For assay [9], the target named is Dual specificity protein phosphatase 3 (Homo sapiens) (UniProt P51452). Kind of assay: Inhibition of VHR at 100 uM.
The nature of assay [10]: Inhibition of Cdc14 at 100 uM.
Assay [11] addresses Tyrosine-protein phosphatase non-receptor type 6 (Homo sapiens, UniProt P29350). Kind of assay: Inhibition of SHP1.

The values below come from ChEMBL document CHEMBL1800013, “Small molecule inhibitors of SHP2 tyrosine phosphatase discovered by virtual screening” (Bioorg Med Chem Lett, 2011).

pIC50: −log10 of the molar value. Activity calls are given as the source filed them. No cut-off for these calls is given here.

Chain of Receptor-type tyrosine-protein phosphatase alpha (Homo sapiens) (P18433 20-802 limits assumed): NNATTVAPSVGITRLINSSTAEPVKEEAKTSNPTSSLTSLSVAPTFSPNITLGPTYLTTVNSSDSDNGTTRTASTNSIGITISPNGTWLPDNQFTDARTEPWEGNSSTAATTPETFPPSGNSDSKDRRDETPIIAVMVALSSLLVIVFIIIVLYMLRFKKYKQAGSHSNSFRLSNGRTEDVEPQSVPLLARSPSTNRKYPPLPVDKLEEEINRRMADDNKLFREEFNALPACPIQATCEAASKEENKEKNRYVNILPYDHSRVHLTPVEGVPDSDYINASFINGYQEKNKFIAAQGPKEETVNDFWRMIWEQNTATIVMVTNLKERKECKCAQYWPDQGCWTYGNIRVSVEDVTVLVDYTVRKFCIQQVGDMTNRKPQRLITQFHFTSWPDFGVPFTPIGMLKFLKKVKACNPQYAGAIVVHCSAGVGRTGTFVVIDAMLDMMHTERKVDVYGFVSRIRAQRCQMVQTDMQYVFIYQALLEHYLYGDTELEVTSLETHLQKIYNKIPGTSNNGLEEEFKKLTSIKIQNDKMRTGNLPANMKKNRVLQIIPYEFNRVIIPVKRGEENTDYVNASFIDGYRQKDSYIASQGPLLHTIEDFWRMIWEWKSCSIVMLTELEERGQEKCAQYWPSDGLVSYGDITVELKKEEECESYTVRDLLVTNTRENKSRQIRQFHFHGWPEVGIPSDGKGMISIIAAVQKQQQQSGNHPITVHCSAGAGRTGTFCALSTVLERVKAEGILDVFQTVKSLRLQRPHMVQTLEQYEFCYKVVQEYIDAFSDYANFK
Chain of Receptor-type tyrosine-protein phosphatase F (P10586 whole entry): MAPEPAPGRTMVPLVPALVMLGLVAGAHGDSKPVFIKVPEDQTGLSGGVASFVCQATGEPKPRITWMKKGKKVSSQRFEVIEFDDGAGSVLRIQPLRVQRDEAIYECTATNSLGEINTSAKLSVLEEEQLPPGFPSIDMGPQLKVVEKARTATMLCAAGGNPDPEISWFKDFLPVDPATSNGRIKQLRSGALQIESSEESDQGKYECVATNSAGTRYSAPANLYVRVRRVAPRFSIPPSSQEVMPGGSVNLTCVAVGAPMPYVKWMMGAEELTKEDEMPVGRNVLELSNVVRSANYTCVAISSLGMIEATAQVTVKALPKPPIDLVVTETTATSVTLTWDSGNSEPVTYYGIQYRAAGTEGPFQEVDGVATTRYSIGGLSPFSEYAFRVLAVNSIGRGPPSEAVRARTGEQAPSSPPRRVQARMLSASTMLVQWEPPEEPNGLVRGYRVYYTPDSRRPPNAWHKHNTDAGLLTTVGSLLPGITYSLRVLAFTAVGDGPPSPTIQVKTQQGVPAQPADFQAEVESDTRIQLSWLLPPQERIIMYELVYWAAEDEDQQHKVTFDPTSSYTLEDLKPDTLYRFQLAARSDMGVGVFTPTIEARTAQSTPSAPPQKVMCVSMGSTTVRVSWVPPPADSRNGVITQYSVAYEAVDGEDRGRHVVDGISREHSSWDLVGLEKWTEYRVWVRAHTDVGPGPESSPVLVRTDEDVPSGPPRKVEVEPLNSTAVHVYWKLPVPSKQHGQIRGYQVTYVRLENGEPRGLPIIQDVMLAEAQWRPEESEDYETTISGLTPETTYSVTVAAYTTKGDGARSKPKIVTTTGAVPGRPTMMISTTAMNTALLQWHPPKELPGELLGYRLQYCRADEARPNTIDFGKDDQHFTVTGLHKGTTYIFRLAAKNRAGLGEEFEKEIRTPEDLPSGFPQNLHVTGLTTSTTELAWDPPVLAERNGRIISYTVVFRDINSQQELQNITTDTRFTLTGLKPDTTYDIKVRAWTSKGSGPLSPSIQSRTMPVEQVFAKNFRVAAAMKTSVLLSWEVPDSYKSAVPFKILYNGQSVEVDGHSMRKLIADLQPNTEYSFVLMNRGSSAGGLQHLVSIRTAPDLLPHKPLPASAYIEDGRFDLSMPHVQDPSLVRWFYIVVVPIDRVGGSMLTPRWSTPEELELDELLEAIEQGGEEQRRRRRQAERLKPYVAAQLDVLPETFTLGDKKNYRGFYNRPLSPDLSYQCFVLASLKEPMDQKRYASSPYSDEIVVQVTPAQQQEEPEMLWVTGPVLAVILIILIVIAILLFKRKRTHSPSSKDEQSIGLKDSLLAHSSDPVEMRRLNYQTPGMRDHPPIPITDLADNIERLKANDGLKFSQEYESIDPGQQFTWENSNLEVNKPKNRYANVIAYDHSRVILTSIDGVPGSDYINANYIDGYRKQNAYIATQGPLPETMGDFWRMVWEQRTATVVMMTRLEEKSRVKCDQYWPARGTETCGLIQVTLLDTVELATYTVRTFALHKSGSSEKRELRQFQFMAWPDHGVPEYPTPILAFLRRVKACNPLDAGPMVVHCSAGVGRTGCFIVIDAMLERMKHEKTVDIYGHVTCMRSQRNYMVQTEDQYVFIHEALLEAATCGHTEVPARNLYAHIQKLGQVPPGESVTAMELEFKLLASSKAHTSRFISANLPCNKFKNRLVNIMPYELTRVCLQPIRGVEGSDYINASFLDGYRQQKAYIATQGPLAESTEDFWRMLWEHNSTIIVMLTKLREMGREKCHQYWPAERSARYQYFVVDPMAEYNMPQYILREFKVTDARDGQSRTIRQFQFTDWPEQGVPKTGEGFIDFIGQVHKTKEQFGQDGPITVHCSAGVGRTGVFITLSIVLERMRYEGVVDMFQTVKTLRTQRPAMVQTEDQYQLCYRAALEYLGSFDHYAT
Chain of Dual specificity protein phosphatase 3 (Homo sapiens) (P51452 whole entry, looked up): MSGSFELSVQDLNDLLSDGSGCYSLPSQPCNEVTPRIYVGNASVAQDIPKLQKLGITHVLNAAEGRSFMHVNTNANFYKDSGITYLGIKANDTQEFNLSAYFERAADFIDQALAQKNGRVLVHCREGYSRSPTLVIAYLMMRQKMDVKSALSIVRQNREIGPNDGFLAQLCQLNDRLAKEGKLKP
Chain of Tyrosine-protein phosphatase non-receptor type 6 (P29350 whole entry): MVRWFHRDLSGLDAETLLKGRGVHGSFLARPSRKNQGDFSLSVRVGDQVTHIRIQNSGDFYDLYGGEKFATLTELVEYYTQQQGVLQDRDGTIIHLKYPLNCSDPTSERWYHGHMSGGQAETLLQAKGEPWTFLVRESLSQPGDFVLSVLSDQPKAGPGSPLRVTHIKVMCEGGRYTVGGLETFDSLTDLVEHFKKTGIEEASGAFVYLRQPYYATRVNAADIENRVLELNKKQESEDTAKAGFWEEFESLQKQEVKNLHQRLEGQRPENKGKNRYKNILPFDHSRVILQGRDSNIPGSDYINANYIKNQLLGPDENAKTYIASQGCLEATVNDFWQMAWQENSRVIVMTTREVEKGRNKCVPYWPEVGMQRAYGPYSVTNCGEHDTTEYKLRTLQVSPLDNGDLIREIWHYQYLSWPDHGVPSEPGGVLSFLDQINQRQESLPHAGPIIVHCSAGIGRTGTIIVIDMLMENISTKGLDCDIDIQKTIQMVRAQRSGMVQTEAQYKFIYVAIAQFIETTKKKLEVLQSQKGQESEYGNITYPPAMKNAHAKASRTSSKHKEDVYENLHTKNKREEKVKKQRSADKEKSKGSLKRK

With `Cc1cc(S(=O)(=O)O)c(S(=O)(=O)O)cc1N1N=C(C(=O)O)CC1=O`, the pIC50 in assay [1] is less than 4.00; in assay [3], 3.93; in assay [4], less than 4.00; in [6] it was less than 4.00; in assay [7] it was less than 4.00; in assay [11] it was 4.85. Also, the inhibition in assay [2] came to 91%. In addition, the inhibition result in assay [5], in assay [8], in [9] and in assay [10] was “inactive” in each case.
